How the values were obtained:
[1] = tested on: anticorps anti-protéine F; assay: Western blot test on peptide spots with sera of HIV-1 infected patients; assay type: binding, humain; parameters: key to réaction avec sérum CHA 1/300, 10µl / réaction avec sérum LOM 1/100, 10µl / réaction avec sérum LOM 1/100, 5µl / réaction avec sérum CHA 1/300, 5µl / réaction avec sérum CHA 1/300, 2µl / réaction avec sérum CHA 1/300, 1µl / réaction avec sérum 1545 1/200, 10µl: ++ signifiant une réaction plus marquée
Description: Pour les besoins du test, les différents peptides PF16, PF19, PF13, PF17 utilisés sont dilués à une concentration de 2 mg/ml.
Sur une bande de papier BIORAD pour transblot, on dépose différents spots : 1µl, 2µl, 5µl, 10µl.
Après séchage on pratique un test Western Blot classique en utilisant comme anticorps des sérums de patients infectés par le virus HIV-1, positifs pour la protéine F, à des dilutions variant de 1/100 à 1/300.
Les peptides testés permettent d'aboutir aux résultats résumés dans le tableau 2 avec trois sérums différents anti-F ++ (++ signifiant une réaction plus marquée).

anticorps anti-nef = assay: ELISA for detection of anti-nef antibodies on coated peptides or nef; assay type: binding, humain; conditions: 500 ng coated per well
Description: Des plaques de microtitration à 96 puits ont été recouvertes une nuit avec 500 ng de protéine nef bactérienne, à 37°C ou avec 500 ng de peptides synthétiques par puits dans 50µl de PBS à pH 7,4. Après saturation avec 400 µl de PBS pH 7,4, contenant 5% de caséine, durant 1 heure à 37°C et lavage avec PBS à pH 7,4, 0,5% de BSA, 0,01% tween, 50 µl de sérums à différentes dilutions ont été ajoutés pendant 2 heures à 37°C. Après le rinçage, 50µl de complexes d'IgG de souris anti-humaine-(H + L)-peroxydase 1:1000 ont été incubés pendant 1 heure à 37°C. Après un nouveau rinçage, 100µl de OPD ont été ajoutés pendant 30mn à température ambiante dans l'obscurité. La réaction de l'enzyme a été arrêtée par addition de 50µl d'acide sulfurique 4N et la densité optique des plaques a été lue à 492 nm/620 nm. Les plaques recouvertes avec la caséine ont été utilisées comme contrôle négatif.
En vue d'étudier la possibilité d'utiliser des peptides synthétiques en tant qu'antigènes pour la détection d'anticorps anti-nef chez des patients infectés par HIV, 8 peptides synthétiques couvrant la totalité de la séquence de la protéine nef de HIV-1 (figure 4) ont été utilisés dans un test ELISA avec 31 sérums anti-nef positifs et 2 sérums anti-nef négatifs utilisés comme contrôle. Les recombinants nef ont été utilisés comme contrôle positif dans les tests ELISA et la caséine a été utilisée comme contrôle négatif. Les résultats de ces expériences sont donnés dans le tableau 4 qui illustre l'essai suivant: Essai ELISA sur 31 sérums anti-nef-positifs et 2 sérums anti-nef- négatifs, soit pré-recouverts avec des peptides synthétiques (PF 11 à PF 18), soit en utilisant nef, la caséine ou un mélange de peptides PF 12 et PF 17. Les sérums ont été sélectionnés au hasard parmi des sérums anti-nef positifs et anti-nefs négatifs testés par la méthode RIA en utilisant ¹²⁵I nef. L'intensité de l'immunoradioactivité est notée "-" pour une densité optique (OD) inférieure à 0,2; "+" pour OD = 0,2 à 0,4; "++" pour OD = 0,4 à 0,8 et "+++" pour OD = 0,8 à 2,0.

Sequence: XCRGGLEGMFYSERRHKILNIYLEKEEGIIADZ [PF19]
- réaction avec sérum CHA 1/300, 5µl ([1]; serum CHA diluted 1/300, spot 5µl of peptide at 2 mg/ml): ++
- réaction avec sérum CHA 1/300, 10µl ([1]; serum CHA diluted 1/300, spot 10µl of peptide at 2 mg/ml): ++
- réaction avec sérum LOM 1/100, 5µl ([1]; serum LOM diluted 1/100 (column outside the heading of positive sera), spot 5µl of peptide at 2 mg/ml): tr
- réaction avec sérum LOM 1/100, 10µl ([1]; serum LOM diluted 1/100 (column outside the heading of positive sera), spot 10µl of peptide at 2 mg/ml): tr
- réaction avec sérum P.6. 1/200, 5µl ([1]; serum P.6. diluted 1/200, spot 5µl of peptide at 2 mg/ml): tr

Sequence: XGGKWSKSSVVGWPTVRERMRRAEPAADGVGAYCZ [PF11]
- intensité de l'immunoréactivité (OD), Serum 1 (anticorps anti-nef; Serum 1, anti-nef positive): - (pour une densité optique (OD) inférieure à 0,2)
- intensité de l'immunoréactivité (OD), Serum 2 (anticorps anti-nef; Serum 2, anti-nef positive): - (pour une densité optique (OD) inférieure à 0,2)
- intensité de l'immunoréactivité (OD), Serum 3 (anticorps anti-nef; Serum 3, anti-nef positive): - (pour une densité optique (OD) inférieure à 0,2)
- intensité de l'immunoréactivité (OD), Serum 4 (anticorps anti-nef; Serum 4, anti-nef positive): - (pour une densité optique (OD) inférieure à 0,2)
- intensité de l'immunoréactivité (OD), Serum 5 (anticorps anti-nef; Serum 5, anti-nef positive): - (pour une densité optique (OD) inférieure à 0,2)
- intensité de l'immunoréactivité (OD), Serum 6 (anticorps anti-nef; Serum 6, anti-nef positive): - (pour une densité optique (OD) inférieure à 0,2)
- intensité de l'immunoréactivité (OD), Serum 7 (anticorps anti-nef; Serum 7, anti-nef positive): ++ (pour OD = 0,4 à 0,8)
- intensité de l'immunoréactivité (OD), Serum 8 (anticorps anti-nef; Serum 8, anti-nef positive): - (pour une densité optique (OD) inférieure à 0,2)
- intensité de l'immunoréactivité (OD), Serum 9 (anticorps anti-nef; Serum 9, anti-nef positive): - (pour une densité optique (OD) inférieure à 0,2)
- intensité de l'immunoréactivité (OD), Serum 10 (anticorps anti-nef; Serum 10, anti-nef positive): - (pour une densité optique (OD) inférieure à 0,2)
- intensité de l'immunoréactivité (OD), Serum 11 (anticorps anti-nef; Serum 11, anti-nef positive): ++ (pour OD = 0,4 à 0,8)
- intensité de l'immunoréactivité (OD), Serum 12 (anticorps anti-nef; Serum 12, anti-nef positive): + (pour OD = 0,2 à 0,4)
- intensité de l'immunoréactivité (OD), Serum 13 (anticorps anti-nef; Serum 13, anti-nef positive): - (pour une densité optique (OD) inférieure à 0,2)
- intensité de l'immunoréactivité (OD), Serum 14 (anticorps anti-nef; Serum 14, anti-nef positive): - (pour une densité optique (OD) inférieure à 0,2)
- intensité de l'immunoréactivité (OD), Serum 15 (anticorps anti-nef; Serum 15, anti-nef positive): - (pour une densité optique (OD) inférieure à 0,2)
- intensité de l'immunoréactivité (OD), Serum 16 (anticorps anti-nef; Serum 16, anti-nef positive): - (pour une densité optique (OD) inférieure à 0,2)
- intensité de l'immunoréactivité (OD), Serum 17 (anticorps anti-nef; Serum 17, anti-nef positive): - (pour une densité optique (OD) inférieure à 0,2)
- intensité de l'immunoréactivité (OD), Serum 18 (anticorps anti-nef; Serum 18, anti-nef positive): - (pour une densité optique (OD) inférieure à 0,2)
- intensité de l'immunoréactivité (OD), Serum 19 (anticorps anti-nef; Serum 19, anti-nef positive): +++ (pour OD = 0,8 à 2,0)
- intensité de l'immunoréactivité (OD), Serum 20 (anticorps anti-nef; Serum 20, anti-nef positive): - (pour une densité optique (OD) inférieure à 0,2)
- intensité de l'immunoréactivité (OD), Serum 21 (anticorps anti-nef; Serum 21, anti-nef positive): + (pour OD = 0,2 à 0,4)
- intensité de l'immunoréactivité (OD), Serum 22 (anticorps anti-nef; Serum 22, anti-nef positive): - (pour une densité optique (OD) inférieure à 0,2)
- intensité de l'immunoréactivité (OD), Serum 23 (anticorps anti-nef; Serum 23, anti-nef positive): - (pour une densité optique (OD) inférieure à 0,2)
- intensité de l'immunoréactivité (OD), Serum 24 (anticorps anti-nef; Serum 24, anti-nef positive): - (pour une densité optique (OD) inférieure à 0,2)
- intensité de l'immunoréactivité (OD), Serum 25 (anticorps anti-nef; Serum 25, anti-nef positive): +++ (pour OD = 0,8 à 2,0)
- intensité de l'immunoréactivité (OD), Serum 26 (anticorps anti-nef; Serum 26, anti-nef positive): +++ (pour OD = 0,8 à 2,0)
- intensité de l'immunoréactivité (OD), Serum 27 (anticorps anti-nef; Serum 27, anti-nef positive): - (pour une densité optique (OD) inférieure à 0,2)
- intensité de l'immunoréactivité (OD), Serum 28 (anticorps anti-nef; Serum 28, anti-nef positive): + (pour OD = 0,2 à 0,4)
- intensité de l'immunoréactivité (OD), Serum 29 (anticorps anti-nef; Serum 29, anti-nef positive): + (pour OD = 0,2 à 0,4)
- intensité de l'immunoréactivité (OD), Serum 30 (anticorps anti-nef; Serum 30, anti-nef positive): - (pour une densité optique (OD) inférieure à 0,2)
- intensité de l'immunoréactivité (OD), Serum 31 (anticorps anti-nef; Serum 31, anti-nef positive): +++ (pour OD = 0,8 à 2,0)
- intensité de l'immunoréactivité (OD), Serum 32 (anticorps anti-nef; Serum 32, anti-nef negative control serum): - (pour une densité optique (OD) inférieure à 0,2)
- intensité de l'immunoréactivité (OD), Serum 33 (anticorps anti-nef; Serum 33, anti-nef negative control serum): - (pour une densité optique (OD) inférieure à 0,2)
